The target in the experiment is T1, MAP2K7 (Homo sapiens, UniProt O14733).
T1 sequence (O14733 2-419): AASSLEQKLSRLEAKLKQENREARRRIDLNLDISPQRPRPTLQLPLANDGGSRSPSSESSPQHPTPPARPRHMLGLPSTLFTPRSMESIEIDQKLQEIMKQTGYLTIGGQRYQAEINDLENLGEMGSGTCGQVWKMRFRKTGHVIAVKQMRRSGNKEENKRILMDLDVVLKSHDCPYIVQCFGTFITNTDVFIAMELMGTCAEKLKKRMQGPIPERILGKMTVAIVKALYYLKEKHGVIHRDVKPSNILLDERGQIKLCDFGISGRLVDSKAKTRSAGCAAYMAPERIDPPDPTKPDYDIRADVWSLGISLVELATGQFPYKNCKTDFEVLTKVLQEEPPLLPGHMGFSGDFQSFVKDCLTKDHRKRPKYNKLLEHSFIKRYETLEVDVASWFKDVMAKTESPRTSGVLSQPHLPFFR
Put plainly: ADP-Glo kinase assay, purified human MAP2K7 with dead-JNK2 substrate and ATP. Type of experiment: biochemical.

Structures are written as SMILES. pIC50: −log10 of the molar value.

For `CC(=O)c1cnc2ccc(-c3cc(Cl)c(O)c(Cl)c3)nc2c1N[C@H]1CC[C@H](CN(C)C)CC1` [OTSSP167], the pIC50 (in general, the negative decadic logarithm of the IC50, by convention in mol/L) is 6.80.
